In patent publication US20260256753A1, “USE OF AN OREXIN 2 RECEPTOR AGONIST FOR IMPROVING RESPIRATORY FUNCTION DURING SLEEP” (TAKEDA PHARMACEUTICAL COMPANY LIMITED, priority 2023, published 2026):

Assays:
[1] = molecular target: T1, OX2R (Homo sapiens, UniProt O43614); details: OX2R-expressed recombinant cells; cited from earlier work
T1 sequence (O43614 1-444): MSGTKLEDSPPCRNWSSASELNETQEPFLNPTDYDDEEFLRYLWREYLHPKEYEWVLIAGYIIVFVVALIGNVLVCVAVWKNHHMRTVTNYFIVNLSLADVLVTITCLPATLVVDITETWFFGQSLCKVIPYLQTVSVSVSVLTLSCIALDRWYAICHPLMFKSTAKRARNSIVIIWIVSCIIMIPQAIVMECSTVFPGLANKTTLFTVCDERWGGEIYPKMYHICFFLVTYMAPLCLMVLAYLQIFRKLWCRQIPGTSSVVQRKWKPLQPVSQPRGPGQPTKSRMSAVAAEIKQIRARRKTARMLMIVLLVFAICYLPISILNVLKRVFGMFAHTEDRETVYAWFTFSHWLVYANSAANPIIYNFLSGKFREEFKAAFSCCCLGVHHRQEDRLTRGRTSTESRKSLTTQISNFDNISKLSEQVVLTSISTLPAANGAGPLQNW

[2] = molecular target: T1, OX2R; details: OX2R-expressed recombinant cells; cited from earlier work; remark: listed apart in the source
[3] = system: neurons in the pre-Bötzinger complex; experiment: Electrophysiologic recording of neurons in the pre-Bötzinger complex in rat medullary slices; format: cell-based; details: whole cell patch clamp, versus vehicle (0.1% DMSO) control, FIG. 1
Source text: (§1) Neonatal rats (postnatal day 1-10) were decapitated and the neuraxis was isolated in a chamber filled with oxygenated artificial cerebrospinal fluid solution (ACSF, in mM: NaCl 125, KCl 2.5, MgCl2 1, CaCl2 2, NaHCO3 25, NaH2PO4 1.25, glucose 25, pH 7.4). The cerebellum was removed, and the brainstem was mounted in the vibratome (VT 1000S; Leica, Milan, Italy) chamber filled with oxygenated gluconate cutting solution (in mM: Kgluconate 130, KCl 15, EGTA 0.2, HEPES 20, glucose 25, kynurenic acid 2, pH 7.4). Transverse medullary slices containing the pre-Bötzinger complex and hypoglossal nucleus were cut (400-600 μm thick). The slices were transferred at room temperature for 1 min in an oxygenated mannitol cutting solution (in mM: D-mannitol 225, glucose 25, KCl 2.5, NaH2PO4 1.25, NaHCO3 26, CaCl2 0.8, MgCl2 8, kynurenic acid 2, pH 7.4). Slices were then transferred in ACSF solution at 30° C. for 30 min and at room temperature for 30 min. At least 30 min prior to the start of recording, each slice was transferred in the recording solution in which the concentration of K+ was raised to 9 mM and that of Mg2+ was decreased to 0.5 mM to ensure the production of long-term and stable rhythm. […] Signals were acquired using Clampex 10.6 software (Axon, Molecular Devices, CA, USA) at a sampling rate of 10-20 kHz and filtered at 2-10 kHz using an 8-pole Bessel filter built within the software and analyzed using Clampfit 10.6 software (pClamp 10.6; Axon, Molecular Devices). […] Bursts were then automatically detected, and burst frequency was measured.
(§2) To evaluate the effects of vehicle (0.1% DMSO) on neuronal activities, after 5 min of stabilization, the neuronal activities under basal condition was recorded for 2-12 min, followed by recording in the presence of vehicle (0.1% DMSO) for 30 min. […]

[4] = system: phrenic motoneurons; experiment: Electrophysiologic recording of phrenic motoneurons in rat isolated brainstem-spinal cord preparations; format: cell-based; details: C3-5 ventral root, versus vehicle control, FIG. 2
Description: Neonatal (postnatal day 1-4) rats were decapitated, and the brainstem-spinal cord was dissected in a bath containing ACSF. The cerebellum and pons were ablated. At least 30 min prior to the start of recording, the tissue was transferred in the recording solution in which the concentration of K+ was raised to 5 mM and that of Mg2+ was decreased to 0.5 mM to ensure production of long-term and stable rhythm (modified ACSF, in mM: NaCl 125, MgCl2 0.5, KCl 5, CaCl2 1, NaHCO3 25, NaH2PO4 1.25, glucose 30, pH 7.4). The tissues were glued on coverslips and transferred to a recording chamber and continuously perfused at 27±2° C. with mACSF at a flow rate of 2.3±0.2 mL/min. Activity of phrenic motoneurons was measured in electrophysiological recordings from C3-5 ventral root, outputs of phrenic motoneurons (J. J. Greer, J. C. Smith, J. L. Feldman, Respiratory and locomotor patterns generated in the fetal rat brain stem-spinal cord in vitro, J Neurophysiol 67 (4) (1992) 996-9; J. C. Smith, J. J. Greer, G. S. Liu, J. L. Feldman, Neural mechanisms generating respiratory pattern in mammalian brain stem-spinal cord in vitro. I. Spatiotemporal patterns of motor and medullary neuron activity, J Neurophysiol 64 (4) (1990) 1149-69), using a glass suction electrode. […] The rectification and integration was used for quantification of the activities of phrenic motoneurons because the spontaneous bursts detected in voltage signals are consisting of multiple positive and negative voltages from baseline (T. Sugita, et al.). […] Bursts were then automatically detected, and burst frequency was measured.
To evaluate the effects of vehicle (0.1% DMSO) on neuronal activities, after 5 min of stabilization, the neuronal activities under basal condition were recorded for 2-20 min, followed by recording with vehicle (0.1% DMSO) for 30-40 min. […] As vehicle (0.1% DMSO) had no significant effects on burst frequency of phrenic neurons, potential of drugs was assessed under vehicle (0.1% DMSO). […]

[5] = system: hypoglossal motoneurons; experiment: Electrophysiologic recording of hypoglossal motoneurons in rat medullary slices; format: cell-based; details: whole cell patch clamp, versus vehicle control, FIG. 3
Source text: as §1, §2

Compound | calcium mobilization [1] | recruitment of β-arrestins [2] | burst frequency in neurons in the pre-Bötzinger complex [3] | burst frequency of phrenic motoneurons [4] | burst frequency of hypoglossal motoneurons [5]
Orexin-B: Orexin-B (OX-B) peptide | increase calcium mobilization | promote recruitment of β-arrestins |  |  | 
COc1ccc(-c2cccc(C(=O)N(C)C)c2)cc1S(=O)(=O)Nc1cccc(NCCNC(=O)c2ccccc2N(C)C)c1 [YNT-185] | increase calcium mobilization | promote recruitment of β-arrestins |  |  | 
CC(C)(O)C(=O)N1CC[C@H](NS(C)(=O)=O)[C@@H]1Cc1cccc(-c2cc(F)cc(F)c2)c1F [Compound B, N-((2S,3S)-1-(2-hydroxy-2-methylpropanoyl)-2-((2,3′,5′-trifluorobiphenyl-3-yl)methyl)pyrrolidin-3-yl) methanesulfonamide] |  |  | increased burst frequency | increased burst frequency | increased burst frequency
